In ChEMBL document CHEMBL1201862, “PubChem BioAssay data set” (2004):
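All cell lines were grown in 96-well plates and treated with compound for 48 hours. At the GI50, growth is halved.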 Activity calls are given as the source filed them. No stated cut-off is given here; in the data, active = GI50 up to about 1.1 µM and inactive = higher.

Legend:
Assay in all cases: NCI-60 cell line screen, 48 h
KM12 = tested on: KM12
DU-145 = tested on: DU-145
BT-549 = tested on: BT-549
HL-60 = tested on: HL-60
A498 = tested on: A498
SN12C = tested on: SN12C
SK-MEL-2 = tested on: SK-MEL-2
SR = tested on: SR
MOLT-4 = tested on: MOLT-4
NCI-H23 = tested on: NCI-H23
SW-620 = tested on: SW-620
UO-31 = tested on: UO-31
SNB-19 = tested on: SNB-19
OVCAR-8 = tested on: OVCAR-8
786-0 = tested on: 786-0
NCI-H460 = tested on: NCI-H460
SF-295 = tested on: SF-295
SK-MEL-5 = tested on: SK-MEL-5
T47D = tested on: T47D
RXF 393 = tested on: RXF 393

Structure (SMILES) | GI50 (KM12) | GI50 (DU-145) | GI50 (BT-549) | GI50 (HL-60) | GI50 (A498) | GI50 (SN12C) | GI50 (SK-MEL-2) | GI50 (SR) | GI50 (MOLT-4) | GI50 (NCI-H23) | GI50 (SW-620) | GI50 (UO-31) | GI50 (SNB-19) | GI50 (OVCAR-8) | GI50 (786-0) | GI50 (NCI-H460) | GI50 (SF-295) | GI50 (SK-MEL-5) | GI50 (T47D) | GI50 (RXF 393)
NS(=O)(=O)c1ccc(NCc2cnc3ccccc3c2)cc1 | > 100 µM (inactive) | > 100 µM (inactive) | 62.8 µM (inactive) | 0.412 µM (active) | > 100 µM (inactive) | > 100 µM (inactive) | > 100 µM (inactive) | > 100 µM (inactive) | > 100 µM (inactive) | 60 µM (inactive) | > 100 µM (inactive) | > 100 µM (inactive) | > 100 µM (inactive) | 34.7 µM (inactive) | 39.4 µM (inactive) | > 100 µM (inactive) | > 100 µM (inactive) | > 100 µM (inactive) | > 100 µM (inactive) | > 100 µM (inactive)
Nc1ncnc2nn(C3OC(CO)C(O)C3O)nc12 (stereo not given) | 10.1 µM (inactive) | 5.26 µM (inactive) | 24.2 µM (inactive) | 2.43 µM (inactive) | 10.2 µM (inactive) | 8.02 µM (inactive) | 2.99 µM (inactive) | 2.99 µM (inactive) | 15.1 µM (inactive) | 20.3 µM (inactive) | 6.52 µM (inactive) | 6.44 µM (inactive) | 29.6 µM (inactive) | 8.11 µM (inactive) | 10.4 µM (inactive) | 4.09 µM (inactive) | 22 µM (inactive) | 12.8 µM (inactive) | 4.21 µM (inactive) | 2 µM (inactive)
C/C(=N\NC(=O)N/N=C(\C)c1ccccn1)c1ccccn1 | 0.139 µM (active) | 43.5 µM (inactive) | 1.15 µM (inactive) | 0.0767 µM (active) | > 71.4 µM (inactive) | 2.16 µM (inactive) | > 100 µM (inactive) | 0.394 µM (active) | 0.555 µM (active) | 0.15 µM (active) | 0.726 µM (active) | 22.8 µM (inactive) | 2.19 µM (inactive) | 9.75 µM (inactive) | 2.66 µM (inactive) | 0.953 µM (active) | 0.308 µM (active) | 0.296 µM (active) | 35.2 µM (inactive) | 28.1 µM (inactive)
COC1=CC(=O)O/C1=C(\OC)C1OC1c1ccccc1 (stereo not given) | > 100 µM (inactive) | > 100 µM (inactive) | > 100 µM (inactive) | 85.7 µM (inactive) | > 100 µM (inactive) | > 100 µM (inactive) | > 100 µM (inactive) | 13 µM (inactive) | 53.7 µM (inactive) | > 100 µM (inactive) | > 100 µM (inactive) | > 100 µM (inactive) | > 100 µM (inactive) | > 100 µM (inactive) | > 100 µM (inactive) | > 100 µM (inactive) | > 100 µM (inactive) | > 100 µM (inactive) | 76 µM (inactive) | > 100 µM (inactive)
O=[N+]([O-])c1cccc(/N=N/c2c(O)c(S(=O)(=O)O)cc3cc(S(=O)(=O)O)ccc23)c1 | > 100 µM (inactive) | > 100 µM (inactive) | > 100 µM (inactive) | > 100 µM (inactive) | > 100 µM (inactive) | > 100 µM (inactive) | > 100 µM (inactive) | > 100 µM (inactive) | > 100 µM (inactive) | > 100 µM (inactive) | > 100 µM (inactive) | > 100 µM (inactive) | > 100 µM (inactive) | > 100 µM (inactive) | > 100 µM (inactive) | > 100 µM (inactive) | > 100 µM (inactive) | > 100 µM (inactive) | > 100 µM (inactive) | > 100 µM (inactive)
COC(=O)[C@@]12C(=O)C=CC(=O)[C@@H]1C1C(=CC2COC(C)=O)O[C@@H]2OC3(CCCCC3)O[C@H]12 (stereo not given in full) | 13 µM (inactive) | 18.3 µM (inactive) | 13.2 µM (inactive) | 2.89 µM (inactive) | 22.8 µM (inactive) | 15.5 µM (inactive) | 20.2 µM (inactive) | 3.05 µM (inactive) | 3.29 µM (inactive) | 17.1 µM (inactive) | 3.75 µM (inactive) | 14.9 µM (inactive) | 16.1 µM (inactive) | 7.94 µM (inactive) | 7.1 µM (inactive) | 16.9 µM (inactive) | 16.1 µM (inactive) | 18 µM (inactive) | 3.66 µM (inactive) | 11.1 µM (inactive)
Nc1ccc(S(=O)(=O)Nc2nccs2)cc1 [SULFATHIAZOLE] | > 100 µM (inactive) | > 100 µM (inactive) | > 100 µM (inactive) | > 100 µM (inactive) | > 100 µM (inactive) | > 100 µM (inactive) | > 100 µM (inactive) | > 100 µM (inactive) | > 100 µM (inactive) | > 100 µM (inactive) | > 100 µM (inactive) | > 100 µM (inactive) | > 100 µM (inactive) | > 100 µM (inactive) | > 100 µM (inactive) | > 100 µM (inactive) | > 100 µM (inactive) | > 100 µM (inactive) | > 100 µM (inactive) | > 100 µM (inactive)
